Test results: patent publication US20250066347A1, “SUBSTITUTED THIAZOLIDINEDIONE DERIVATIVE COMPOUND, AND PHARMACEUTICAL COMPOSITION FOR PREVENTING OR TREATING CANCER, COMPRISING SAME” (MEDIFIC, INC., priority 2021, published 2025)
Values joined by “and” are separate entries in the source; they are usually repeats but may differ in a detail not shown here. Identical values can stand only once. Like-named read-outs stand apart in the source and are kept apart here.

How the values were obtained:
[1] = In vivo PK test, drug concentration in plasma after oral or intravenous administration; details: mouse
Method: • Experimental Drug: Compound 11 • Excipient: 10% DMSO, 75% PEG400, 15% saline 1.2. Experimental system • mouse, CRljOri:CD1(ICR), SPF 6 weeks old (7 weeks old at the time of administration) 1.3. Administration route • oral administration (PO), intravenous administration (IV) 1.4. Administration method and number of administration
After obtaining the mouse, the mouse was acclimatized for 5 days, and used in the experiment. An administration dose was 25 mg/kg by oral administration and 5 mg/kg by intravenous administration. A dosage for each individual was calculated based on the weight after fasting (on the day of administration), and the drug was orally administered once to an oral administration (PO) group using a disposable syringe (1 mL) with a zonde for oral administration attached, and intravenously administered to the tail vein of an intravenous administration (IV) group using a disposable syringe (1 mL).
About 0.3 mL of blood was collected from a jugular vein with a 1 mL syringe (25G) treated with 3.8% sodium citrate (about 30˜40 μl), placed in one microtube (QSP, 1.5 mL), and centrifuged at 12,000 RPM/3 min to collect plasma. The plasma was frozen and stored at −80° C. until analysis, and all animals of a pharmacokinetic experiment group were euthanized after completing the blood collection.
580 μl of acetonitrile (including internal standard) was added to 20 μl of plasma/tissue, and centrifugation was performed at 4° C. at 15,000 rpm for 5 minutes with vortexing. A supernatant obtained after the centrifugation was analyzed with LC-MS/MS.
PK parameter was calculated as a non-compartmental analysis model, using a phoenix WinNonlin 6.4 version (Pharsight, USA) program.

[2] = test system: HOG-GSC cells; experiment: Comparison of cell viability in brain tumor stem cell (MTS assay); type: cell-based; details: 72 hours, DMSO control = 1, value below 0.5 = viability decreased by 50% or more
Method: HOG-GSC cells which are brain tumor stem cells were treated with 11 compounds at 10 μM and DMSO as a control group, and the number of surviving cells after 72 hours was evaluated by MTS assay.
HOG-GSC which is a brain tumor stem cell was seeded on a 96-well plate at 5000 cells per well, and was cultured in an incubator (ThermoFisher) at 37° C. and 5% CO2 for 24 hours for stabilization of cells. Thereafter, it was treated with 11 compounds of the present invention at […] each, and treated with the same volume of DMSO as a control group as the volume of each compound. After treatment with the compound of the present invention and the control group, cells were cultured in an incubator at 37° C. and 5% CO2 for 72 hours. Thereafter, since there were many living cells in each well, cell viability was quantified using a cell viability assay kit (LPS solution) of which the color becomes darker with an increase in the number of cells. After treatment with the cell viability assay solution, a reaction was performed in an incubator at 37° C. and 5% CO2 for 3 hours to perform coloration, absorbance at 450 nm was measured using a microplate reader (BioTek), and an absorbance intensity of the control group was set to 1 and the absorbance of cells treated with each compound was normalized and is shown in FIG. 2.

[3] = test system: HOG-GSC; experiment: Cell viability analysis depending on the concentration of Compound 11; type: cell-based; details: 0.078-20 μM, 72 hours
Method: HOG-GSC which is a brain tumor stem cell was seeded on a 96-well plate at 5000 cells/well, treated with Compound 11 (Example 11) at concentrations of 20 μM, 10 μM, 5 μM, 2.5 μM, 1.25 μM, 0.625 μM, 0.312 μM, 0.156 μM, and 0.078 μM repeatedly 3 times after 24 hours, and treated with the same volume of DMSO as a control group repeatedly 3 times. After the treatment, cells were cultured for 72 hours in an incubator (ThermoFisher) at 37° C., 5% Co2. Thereafter, since there were many living cells in each well, the cell viability depending on the concentration of Compound 11 (Example 11) was compared using a cell viability assay kit (LPS solution) of which the color becomes darker with an increase in the number of cells. Further, absorbance at 450 nm was measured using a microplate reader (BioTek), and absorbance at each concentration was normalized based on the absorbance intensity of the control group of 1 and is shown in FIG. 4.

[4] = CRljOri:CD1(ICR), 25 mg/kg oral administration, plasma

concentration at 0.08 h ([1]; CRljOri:CD1(ICR), plasma, iv, 5 mg/kg, intravenous 5 mg/kg, 0.08 hr, read-out: Drug concentration in plasma, Average): 2560 ng/mL
concentration at 0.08 h ([1]; CRljOri:CD1(ICR), plasma, iv, 5 mg/kg, intravenous 5 mg/kg, 0.08 hr, read-out: Drug concentration in plasma, Individual): 2820 ng/mL
concentration at 0.25 h ([1]; CRljOri:CD1(ICR), plasma, iv, 5 mg/kg, intravenous 5 mg/kg, 0.25 hr, read-out: Drug concentration in plasma, Average): 2540 ng/mL
concentration at 0.25 h ([1]; CRljOri:CD1(ICR), plasma, iv, 5 mg/kg, intravenous 5 mg/kg, 0.25 hr, read-out: Drug concentration in plasma, Individual): 2600 ng/mL
concentration at 0.5 h ([1]; CRljOri:CD1(ICR), plasma, iv, 5 mg/kg, intravenous 5 mg/kg, 0.5 hr, read-out: Drug concentration in plasma, Average): 2260 ng/mL
concentration at 0.5 h ([1]; CRljOri:CD1(ICR), plasma, iv, 5 mg/kg, intravenous 5 mg/kg, 0.5 hr, read-out: Drug concentration in plasma, Individual): 2790 ng/mL
concentration at 1 h ([1]; CRljOri:CD1(ICR), plasma, iv, 5 mg/kg, intravenous 5 mg/kg, 1 hr, read-out: Drug concentration in plasma, Average): 2100 ng/mL
concentration at 1 h ([1]; CRljOri:CD1(ICR), plasma, iv, 5 mg/kg, intravenous 5 mg/kg, 1 hr, read-out: Drug concentration in plasma, Individual): 2590 ng/mL
concentration at 2 hr ([1]; CRljOri:CD1(ICR), plasma, iv, 5 mg/kg, intravenous 5 mg/kg, 2 hr, read-out: Drug concentration in plasma, Average): 1570 ng/mL
concentration at 2 hr ([1]; CRljOri:CD1(ICR), plasma, iv, 5 mg/kg, intravenous 5 mg/kg, 2 hr, read-out: Drug concentration in plasma, Individual): 1130 ng/mL
concentration at 4 h ([1]; CRljOri:CD1(ICR), plasma, iv, 5 mg/kg, intravenous 5 mg/kg, 4 hr, read-out: Drug concentration in plasma, Average): 1280 ng/mL
concentration at 4 h ([1]; CRljOri:CD1(ICR), plasma, iv, 5 mg/kg, intravenous 5 mg/kg, 4 hr, read-out: Drug concentration in plasma, Individual): 1050 ng/mL
concentration at 6 h ([1]; CRljOri:CD1(ICR), plasma, iv, 5 mg/kg, intravenous 5 mg/kg, 6 hr): 652 ng/mL
concentration at 8 h ([1]; CRljOri:CD1(ICR), plasma, iv, 5 mg/kg, intravenous 5 mg/kg, 8 hr, read-out: Drug concentration in plasma, Average): 575 ng/mL
concentration at 8 h ([1]; CRljOri:CD1(ICR), plasma, iv, 5 mg/kg, intravenous 5 mg/kg, 8 hr, read-out: Drug concentration in plasma, Individual): 424 ng/mL
concentration at 24 h ([1]; CRljOri:CD1(ICR), plasma, iv, 5 mg/kg, intravenous 5 mg/kg, 24 hr, BQL = <1 ng/ml, ND = not detectable, read-out: Drug concentration in plasma, Individual): 1.9 ng/mL
concentration at 24 h ([1]; CRljOri:CD1(ICR), plasma, iv, 5 mg/kg, intravenous 5 mg/kg, 24 hr, read-out: Drug concentration in plasma, Average): 1.8 ng/mL
concentration at 0.25 h ([1]; CRljOri:CD1(ICR), plasma, po, 25 mg/kg, oral 25 mg/kg, 0.25 hr, read-out: Drug concentration in plasma, Average): 2910 ng/mL
concentration at 0.5 h ([1]; CRljOri:CD1(ICR), plasma, po, 25 mg/kg, oral 25 mg/kg, 0.5 hr, read-out: Drug concentration in plasma, Average): 4420 ng/mL
concentration at 1 h ([1]; CRljOri:CD1(ICR), plasma, po, 25 mg/kg, oral 25 mg/kg, 1 hr, read-out: Drug concentration in plasma, Average): 3770 ng/mL
concentration at 2 h ([1]; CRljOri:CD1(ICR), plasma, po, 25 mg/kg, oral 25 mg/kg, 2 hr): 3870 ng/mL
concentration at 4 h ([1]; CRljOri:CD1(ICR), plasma, po, 25 mg/kg, oral 25 mg/kg, 4 hr, read-out: Drug concentration in plasma, Average): 3540 ng/mL
concentration at 6 h ([1]; CRljOri:CD1(ICR), plasma, po, 25 mg/kg, oral 25 mg/kg, 6 hr): 5440 ng/mL
concentration at 8 h ([1]; CRljOri:CD1(ICR), plasma, po, 25 mg/kg, oral 25 mg/kg, 8 hr, read-out: Drug concentration in plasma, Average): 5020 ng/mL
concentration at 8 h ([1]; CRljOri:CD1(ICR), plasma, po, 25 mg/kg, oral 25 mg/kg, 8 hr, read-out: Drug concentration in plasma, Individual): 3930 ng/mL
concentration at 24 h ([1]; CRljOri:CD1(ICR), plasma, po, 25 mg/kg, oral 25 mg/kg, 24 hr, BQL = <1 ng/ml, read-out: Drug concentration in plasma, Individual): 4.1 ng/mL
concentration at 24 h ([1]; CRljOri:CD1(ICR), plasma, po, 25 mg/kg, oral 25 mg/kg, 24 hr, read-out: Drug concentration in plasma, Average): 3.6 ng/mL
bioavailability ([1]; CRljOri:CD1(ICR), plasma, 25 mg/kg oral compared with 5 mg/kg intravenous, read-out: bioavailability (BA)): 62.4%
AUC(0-t) [1, 4]: 39400 ng·h/mL
Cmax [1, 4]: 5040 ng/mL
Tmax [1, 4]: 1.6 h
half-life [1, 4]: 3.9 h
Drug concentration in plasma, Individual ([1]; intravenous 5 mg/kg, 24 hr, BQL = <1 ng/ml, ND = not detectable, 5 mg/kg): 1.7 ng/ml and BQL
Drug concentration in plasma, Individual ([1]; oral 25 mg/kg, 24 hr, BQL = <1 ng/ml, 25 mg/kg): BQL and 2.5 ng/ml and 4.1 ng/ml
Compound: CC(C)(C)c1ccc(-c2cc(/C=C3\SC(=O)NC3=O)ccn2)cc1 [Compound 11, (Z)-5-((2-(4-(tert-butyl)phenyl)pyridin-4-yl)methylene)thiazolidine-2,4-dione]
Drug concentration in plasma, Individual ([1]; intravenous 5 mg/kg, 0.08 hr, 5 mg/kg): 2800.0 ng/mL and 1900.0 ng/mL and 2700.0 ng/mL
Drug concentration in plasma, Individual ([1]; intravenous 5 mg/kg, 0.25 hr, 5 mg/kg): 2240.0 ng/mL and 2890.0 ng/mL and 2430.0 ng/mL
Drug concentration in plasma, Individual ([1]; intravenous 5 mg/kg, 0.5 hr, 5 mg/kg): 1890.0 ng/mL and 2360.0 ng/mL and 2000.0 ng/mL
Drug concentration in plasma, Individual ([1]; intravenous 5 mg/kg, 1 hr, 5 mg/kg): 1780.0 ng/mL and 2380.0 ng/mL and 1630.0 ng/mL
Drug concentration in plasma, Individual ([1]; intravenous 5 mg/kg, 2 hr, 5 mg/kg): 1420.0 ng/mL and 2240.0 ng/mL and 1480.0 ng/mL
Drug concentration in plasma, Individual ([1]; intravenous 5 mg/kg, 4 hr, 5 mg/kg): 1410.0 ng/mL and 1400.0 ng/mL and 1260.0 ng/mL
Drug concentration in plasma, Individual ([1]; intravenous 5 mg/kg, 6 hr, 5 mg/kg): 476.0 ng/mL and 491.0 ng/mL and 1080.0 ng/mL and 561.0 ng/mL
Drug concentration in plasma, Individual ([1]; intravenous 5 mg/kg, 8 hr, 5 mg/kg): 614.0 ng/mL and 618.0 ng/mL and 644.0 ng/mL
Drug concentration in plasma, Individual ([1]; oral 25 mg/kg, 0.25 hr, 25 mg/kg): 3210.0 ng/mL and 2230.0 ng/mL and 4300.0 ng/mL and 2000.0 ng/mL
Drug concentration in plasma, Individual ([1]; oral 25 mg/kg, 0.5 hr, 25 mg/kg): 3590.0 ng/mL and 2340.0 ng/mL and 4750.0 ng/mL and 7010.0 ng/mL
Drug concentration in plasma, Individual ([1]; oral 25 mg/kg, 1 hr, 25 mg/kg): 4140.0 ng/mL and 2380.0 ng/mL and 2070.0 ng/mL and 6490.0 ng/mL
Drug concentration in plasma, Individual ([1]; oral 25 mg/kg, 2 hr, 25 mg/kg): 3270.0 ng/mL and 2030.0 ng/mL and 4100.0 ng/mL and 6070.0 ng/mL
Drug concentration in plasma, Individual ([1]; oral 25 mg/kg, 4 hr, 25 mg/kg): 2020.0 ng/mL and 4420.0 ng/mL and 2930.0 ng/mL and 4810.0 ng/mL
Drug concentration in plasma, Individual ([1]; oral 25 mg/kg, 6 hr, 25 mg/kg): 7260.0 ng/mL and 8180.0 ng/mL and 2630.0 ng/mL and 3680.0 ng/mL
Drug concentration in plasma, Individual ([1]; oral 25 mg/kg, 8 hr, 25 mg/kg): 4120.0 ng/mL and 4850.0 ng/mL and 7180.0 ng/mL
cell viability inhibition effect (normalized MTS value) [2]: significant cell viability inhibition effect
cell viability of HOG-GSC compared with DMSO control [3]: significantly decreased
concentration dependence of HOG-GSC cell viability [3]: decreased in proportion to the concentration
